Measurements as given in publication PMC12486440, “Design, synthesis, and in silico studies of new benzofuran–pyrazole hybrids as multi-kinase inhibitors with potential antiproliferative activity” (RSC Advances, 2025).

Assays:
SN12C = settings: single dose 10 μM; renal carcinoma
MCF7 = settings: single dose 10 μM; breast carcinoma
RXF 393 = settings: single dose 10 μM; renal carcinoma
RPMI-8226 = settings: single dose 10 μM; leukemia
TK-10 = settings: single dose 10 μM; renal carcinoma
KM12 = settings: single dose 10 μM; colon cancer
A498 = settings: single dose 10 μM; renal carcinoma
SF-268 = settings: single dose 10 μM; CNS cancer
NCI-H23 = settings: single dose 10 μM; non-small lung carcinoma
HL-60(TB) = settings: single dose 10 μM; leukemia
A549/ATCC = settings: single dose 10 μM; non-small lung carcinoma
SW-620 = settings: single dose 10 μM; colon cancer
PC-3 = settings: single dose 10 μM; prostate carcinoma
OVCAR-4 = settings: single dose 10 μM; ovarian carcinoma
HOP-92 = settings: single dose 10 μM; non-small lung carcinoma
SNB-19 = settings: single dose 10 μM; CNS cancer
K-562 = settings: single dose 10 μM; leukemia
MALME-3M = settings: single dose 10 μM; melanoma
MDA-MB-468 = settings: single dose 10 μM; breast carcinoma
OVCAR-3 = settings: single dose 10 μM; ovarian carcinoma
UACC-62 = settings: single dose 10 μM; melanoma
786–0 = settings: single dose 10 μM; renal carcinoma
COLO 205 = settings: single dose 10 μM; colon cancer
UACC-257 = settings: single dose 10 μM; melanoma
SK-MEL-28 = settings: single dose 10 μM; melanoma
CCRF-CEM = settings: single dose 10 μM; leukemia
NCI-H226 = settings: single dose 10 μM; non-small lung carcinoma
U251 = settings: single dose 10 μM; CNS cancer
IGROV1 = settings: single dose 10 μM; ovarian carcinoma
MOLT-4 = settings: single dose 10 μM; leukemia
T-47D = settings: single dose 10 μM; breast carcinoma
SF-539 = settings: single dose 10 μM; CNS cancer
HCC-2998 = settings: single dose 10 μM; colon cancer
LOX IMVI = settings: single dose 10 μM; melanoma
HCT-15 = settings: single dose 10 μM; colon cancer
CAKI-1 = settings: single dose 10 μM; renal carcinoma
NCI-H522 = settings: single dose 10 μM; non-small lung carcinoma
MDA-MB-435 = settings: single dose 10 μM; melanoma
HCT-116 = settings: single dose 10 μM; colon cancer
SF-295 = settings: single dose 10 μM; CNS cancer
SK-MEL-2 = settings: single dose 10 μM; melanoma
HT29 = settings: single dose 10 μM; colon cancer
NCI-H460 = settings: single dose 10 μM; non-small lung carcinoma
HOP-62 = settings: single dose 10 μM; non-small lung carcinoma
DU-145 = settings: single dose 10 μM; prostate carcinoma
[1] = test system: NCI 60 cancer cell line panel; test: NCI 60 full panel summary; settings: single dose 10 μM; mean over the NCI 60 panel
SK-OV-3 = settings: single dose 10 μM; ovarian carcinoma
M14 = settings: single dose 10 μM; melanoma
ACHN = settings: single dose 10 μM; renal carcinoma
SK-MEL-5 = settings: single dose 10 μM; melanoma
OVCAR-5 = settings: single dose 10 μM; ovarian carcinoma
OVCAR-8 = settings: single dose 10 μM; ovarian carcinoma
EKVX = settings: single dose 10 μM; non-small lung carcinoma
UO-31 = settings: single dose 10 μM; renal carcinoma
SR = settings: single dose 10 μM; leukemia
SNB-75 = settings: single dose 10 μM; CNS cancer
BT-549 = settings: single dose 10 μM; breast carcinoma
NCI/ADR-RES = settings: single dose 10 μM; ovarian carcinoma

Q: Which results are given for `COc1ccc(C2=NNC(c3cn(-c4ccccc4)nc3-c3cc4ccccc4o3)C2)cc1OC` (stereo not drawn) [3c, 3-(Benzofuran-2-yl)-4-(3-(3,4-dimethoxyphenyl)-4,5-dihydro-1H-pyrazol-5-yl)-1-phenyl-1H-pyrazole]?
A: GI% (SN12C): 63.01%; GI% (MCF7): 77.82%; GI% (RXF 393): 36.89%; GI% (RPMI-8226): 88.22%; GI% (TK-10): 42.27%; GI% (KM12): 68.12%; GI% (A498): 7.63%; GI% (SF-268): 61.15%; GI% (NCI-H23): 53.25%; GI% (HL-60(TB)): 88.80%; GI% (A549/ATCC): 57.50%; GI% (SW-620): 47.04%; GI% (PC-3): 66.98%; GI% (OVCAR-4): 58.72%; GI% (HOP-92): 75.25%; GI% (SNB-19): 59.83%; GI% (K-562): 87.48%; GI% (MALME-3M): 30.46%; GI% (MDA-MB-468): 78.06%; GI% (OVCAR-3): 65.22%; GI% (UACC-62): 62.47%; GI% (786–0): 52.36%; GI% (COLO 205): 47.04%; GI% (UACC-257): 45.64%; GI% (SK-MEL-28): 35.60%; GI% (CCRF-CEM): 84.09%; GI% (NCI-H226): 68.39%; GI% (U251): 60.18%; GI% (IGROV1): 61.79%; GI% (MOLT-4): 80.97%; GI% (T-47D): 81.51%; GI% (SF-539): 56.77%; GI% (HCC-2998): 64.60%; GI% (LOX IMVI): 65.24%; GI% (HCT-15): 49.94%; GI% (CAKI-1): 76.85%; GI% (NCI-H522): 51.41%; GI% (MDA-MB-435): 65.91%; GI% (HCT-116): 74.37%; GI% (SF-295): 58.47%; GI% (SK-MEL-2): 47.50%; GI% (HT29): 64.31%; GI% (NCI-H460): 81.94%; GI% (HOP-62): 33.71%; GI% (DU-145): 58.05%; Mean GI% [1]: 60.71%; GI% (SK-OV-3): 32.78%; GI% (M14): 63.24%; GI% (ACHN): 74.84%; GI% (SK-MEL-5): 74.73%; GI% (OVCAR-5): 41.14%; GI% (OVCAR-8): 63.70%; GI% (EKVX): 57.67%; GI% (UO-31): 80.36%; GI% (SR): 77.33%; GI% (SNB-75): 58.00%

Q: “3-(5-(Benzofuran-2-yl)-1-phenyl-1H-pyrazol-3-yl)-1-(3,4-dimethoxyphenyl)prop-2-en-1-one [2c]” was tested. Which GI% (SN12C) did it give?
A: Its GI% is 10.90%.

Q: And the GI% (MCF7)?
A: The GI% was 9.78%.

Q: What about the GI% (RPMI-8226) of the same compound?
A: Its GI% is 4.63%.

Q: And the GI% (TK-10)?
A: The GI% was 6.22%.

Q: And the GI% (A498)?
A: Its GI% is 6.80%.

Q: What about the GI% (SF-268) of the same compound?
A: Its GI% is 1.66%.

Q: What about the GI% (HL-60(TB)) of the same compound?
A: The GI% was 6.49%.

Q: And the GI% (BT-549)?
A: The GI% was 16.27%.

Q: What about the GI% (PC-3) of the same compound?
A: Its GI% is 7.06%.

Q: And the GI% (HOP-92)?
A: Its GI% is 13.94%.

Q: What about the GI% (SNB-19) of the same compound?
A: Its GI% is 4.96%.

Q: What about the GI% (K-562) of the same compound?
A: The GI% was 5.48%.

Q: And the GI% (NCI/ADR-RES)?
A: Its GI% is 1.79%.

Q: And the GI% (MALME-3M)?
A: Its GI% is 5.86%.

Q: And the GI% (MDA-MB-468)?
A: The GI% was 0.93%.

Q: What about the GI% (UACC-62) of the same compound?
A: Its GI% is 4.68%.

Q: What about the GI% (786–0) of the same compound?
A: The GI% was 2.44%.

Q: What about the GI% (CCRF-CEM) of the same compound?
A: Its GI% is 8.09%.

Q: What about the GI% (NCI-H226) of the same compound?
A: The GI% was 1.83%.

Q: What about the GI% (MOLT-4) of the same compound?
A: Its GI% is 4.38%.

Q: And the GI% (T-47D)?
A: The GI% was 9.23%.

Q: What about the GI% (SF-539) of the same compound?
A: The GI% was 4.21%.

Q: And the GI% (HCT-15)?
A: Its GI% is 1.66%.

Q: And the GI% (CAKI-1)?
A: The GI% was 10.30%.

Q: What about the GI% (NCI-H522) of the same compound?
A: Its GI% is 1.92%.

Q: What about the GI% (HCT-116) of the same compound?
A: The GI% was 0.17%.

Q: What about the GI% (SF-295) of the same compound?
A: The GI% was 9.48%.

Q: What about the GI% (HOP-62) of the same compound?
A: Its GI% is 4.42%.

Q: And the “Mean GI%” value [1]?
A: The value was 2.16%.

Q: And the GI% (SK-OV-3)?
A: The GI% was 11.15%.

Q: And the GI% (M14)?
A: Its GI% is 1.79%.

Q: What about the GI% (ACHN) of the same compound?
A: The GI% was 0.70%.

Q: And the GI% (SK-MEL-5)?
A: Its GI% is 1.65%.

Q: And the GI% (OVCAR-5)?
A: The GI% was 0.00%.

Q: What about the GI% (EKVX) of the same compound?
A: Its GI% is 0.81%.

Q: And the GI% (UO-31)?
A: Its GI% is 15.32%.

Q: What about the GI% (SR) of the same compound?
A: The GI% was 17.15%.
